Data taken from patent US7786141B2 (Vertex Pharmaceuticals Incorporated, priority 2004, dated 2010).

Key:
[1] = target: T1, M1 muscarinic receptor (Homo sapiens, UniProt P11229); experiment: Functional mobilization of intracellular calcium (FLIPR) in M1-CHO cells; type: cell-based; details: Table 4; for Emax: 100% efficacy is the maximum response obtained with the Carbachol control; for M1 Activity: M1 receptor, calcium mobilization (FLIPR)
T1 construct: expressed in transfected cells; host or cells: CHO (M1-CHO)
T1 sequence (P11229 1-460): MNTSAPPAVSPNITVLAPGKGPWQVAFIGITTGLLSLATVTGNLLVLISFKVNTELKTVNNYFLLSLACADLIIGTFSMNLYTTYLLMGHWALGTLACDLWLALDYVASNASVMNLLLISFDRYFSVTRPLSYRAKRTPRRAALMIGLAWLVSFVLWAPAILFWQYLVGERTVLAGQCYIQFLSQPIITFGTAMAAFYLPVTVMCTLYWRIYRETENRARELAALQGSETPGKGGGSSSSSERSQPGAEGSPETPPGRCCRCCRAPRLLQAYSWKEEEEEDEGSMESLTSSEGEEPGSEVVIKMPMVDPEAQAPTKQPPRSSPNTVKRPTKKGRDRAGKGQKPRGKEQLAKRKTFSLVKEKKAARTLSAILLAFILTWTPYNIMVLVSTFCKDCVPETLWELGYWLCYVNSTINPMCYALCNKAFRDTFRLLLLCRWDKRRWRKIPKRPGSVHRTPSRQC
Procedure, shortened: (§1)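 Intracellular calcium rise is measured by FLIPR fluorescence over 60 sec in CHO cells carrying human M1 or M4 receptors. Compounds are tested alone as agonists, or pre-incubated 15 min (or co-applied) ahead of carbachol at its EC80 to detect inhibition.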

[2] = target: T2, M4 muscarinic receptor (Homo sapiens, UniProt P08173); experiment: Functional mobilization of intracellular calcium (FLIPR) in M4-CHO cells; type: cell-based; details: Table 4; for Emax: 100% efficacy is the maximum response obtained with the Carbachol control; for M4 Activity: M4 receptor, calcium mobilization (FLIPR)
T2 construct: expressed in transfected cells; host or cells: CHO (M4-CHO)
T2 sequence (P08173 1-479): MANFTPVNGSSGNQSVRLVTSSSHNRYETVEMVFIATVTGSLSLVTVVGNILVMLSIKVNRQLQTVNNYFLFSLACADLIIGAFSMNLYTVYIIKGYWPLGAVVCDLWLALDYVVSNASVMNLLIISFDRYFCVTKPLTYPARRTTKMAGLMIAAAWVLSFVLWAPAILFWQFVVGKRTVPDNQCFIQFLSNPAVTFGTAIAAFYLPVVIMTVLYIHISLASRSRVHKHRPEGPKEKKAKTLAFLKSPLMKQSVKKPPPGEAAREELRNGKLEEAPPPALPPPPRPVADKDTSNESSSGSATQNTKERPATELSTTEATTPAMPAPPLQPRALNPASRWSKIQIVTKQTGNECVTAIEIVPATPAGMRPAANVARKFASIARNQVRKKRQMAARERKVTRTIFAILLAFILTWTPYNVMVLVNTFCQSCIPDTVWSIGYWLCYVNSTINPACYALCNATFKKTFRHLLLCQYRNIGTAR
Procedure, shortened: as §1

Row | Compound | Emax [1] [%] | M1 Activity [1] | Emax [2] [%] | M4 Activity [2]
1 | CCOC(=O)N1CCC(N2CCC3(CC2)CN(c2ccc(OC)nn2)c2ccc(F)cc23)CC1 [compound 896] | 25 to 100 | xxx (activity was measured to be less than 2.0 μM) | 25 to 100 | xxx (activity was measured to be less than 2.0 μM)
2 | CCOC(=O)N1C2CCC1CC(N1CCC3(CC1)CN(C(C)=O)c1c(F)cc(F)cc13)C2 (stereo not shown) [compound 897] | 25 to 100 | xxx (activity was measured to be less than 2.0 μM) | 25 to 100 | xxx (activity was measured to be less than 2.0 μM)
3 | Cc1cc(C(=O)N2CCC(N3CCC4(CC3)CN(C(=O)N(C)C)c3ccc(F)cc34)CC2)nn1C [compound 898] | < 25 | x (activity was measured to be greater than 5.0 μM) | < 25 | x (activity was measured to be greater than 5.0 μM)
4 | CN(C)C(=O)N1CC2(CCN(C3CCN(C(=O)c4ccoc4)CC3)CC2)c2cc(F)ccc21 [compound 900] | < 25 | xx (activity was measured to be between 2.0 μM and 5.0 μM) | < 25 | x (activity was measured to be greater than 5.0 μM)
5 | O=C1CC2(CCN([C@@H]3C[C@H]4CC[C@@H]3C4)CC2)c2ccc(Cl)cc21 [compound 901] | 25 to 100 | xx (activity was measured to be between 2.0 μM and 5.0 μM) | 25 to 100 | xx (activity was measured to be between 2.0 μM and 5.0 μM)
6 | CCOC(=O)N1CC2(CCN(C3CC4CCC3C4)CC2)c2cc(C)ccc21 (stereo not shown) [compound 902] | 25 to 100 | x (activity was measured to be greater than 5.0 μM) | < 25 | x (activity was measured to be greater than 5.0 μM)
7 | CCOC(=O)N1CCC(N2CCC3(CC2)CN(C(=O)N2CCOCC2)c2ccccc23)CC1 [compound 903] | 25 to 100 | xx (activity was measured to be between 2.0 μM and 5.0 μM) | 25 to 100 | xxx (activity was measured to be less than 2.0 μM)
8 | O=C(O)C1CC2(CCN(C3CC4CCC3C4)CC2)c2ccccc21 (stereo not shown) [compound 904] | < 25 | x (activity was measured to be greater than 5.0 μM) | < 25 | x (activity was measured to be greater than 5.0 μM)
9 | CCOC(=O)N1CCC(N2CCC3(CC2)CN(c2cncnc2)c2ccccc23)CC1 [compound 905] | 25 to 100 | xxx (activity was measured to be less than 2.0 μM) | 25 to 100 | xxx (activity was measured to be less than 2.0 μM)
10 | CCOC(=O)N1CCC(N2CCC3(CC2)CN(C(C)=O)c2c(-c4cccc(C)c4)cccc23)CC1 [compound 907] | 25 to 100 | x (activity was measured to be greater than 5.0 μM) | < 25 | x (activity was measured to be greater than 5.0 μM)
11 | CCOC(=O)N1CCC(N2CCC3(CC2)CN(c2ccc(OC)cc2)c2ccc(F)cc23)CC1 [compound 908] | 25 to 100 | xxx (activity was measured to be less than 2.0 μM) | 25 to 100 | xxx (activity was measured to be less than 2.0 μM)
12 | CCCOC(=O)N1CCC(N2CCC3(CC2)CN(C(C)=O)c2ccccc23)CC1 [compound 910] | 25 to 100 | xxx (activity was measured to be less than 2.0 μM) | < 25 | xx (activity was measured to be between 2.0 μM and 5.0 μM)
13 | CCOC(=O)N1CCC(N2CCC3(CC2)CN(C(C)=O)c2c(-c4ccccc4C)cccc23)CC1 [compound 911] | < 25 | x (activity was measured to be greater than 5.0 μM) | < 25 | x (activity was measured to be greater than 5.0 μM)
14 | CC(=O)N[C@H]1CCC2(CCN(C3CCN(C(=O)OC(C)(C)C)CC3)CC2)c2ccccc21 [compound 912] | 25 to 100 | xxx (activity was measured to be less than 2.0 μM) | < 25 | x (activity was measured to be greater than 5.0 μM)
15 | CC(=O)N1CC2(CCN(C[C@@H]3CCN(c4cnccn4)C3)CC2)c2c(C)cccc21 [compound 913] | 25 to 100 | x (activity was measured to be greater than 5.0 μM) | < 25 | x (activity was measured to be greater than 5.0 μM)
16 | CN(C)C(=O)N1CC2(CCN(C3CCN(c4cnc5ccccc5n4)CC3)CC2)c2cc(F)ccc21 [compound 914] | 25 to 100 | xxx (activity was measured to be less than 2.0 μM) | 25 to 100 | xxx (activity was measured to be less than 2.0 μM)
17 | O=C1CC2(CCN(CC3CC4C=CC3C4)CC2)c2ccc(Cl)cc21 (stereo not shown) [compound 915] | 25 to 100 | x (activity was measured to be greater than 5.0 μM) | 25 to 100 | x (activity was measured to be greater than 5.0 μM)
18 | CC(=O)N1CC2(CCN(C3CCC3)CC2)c2cc(F)ccc21 [compound 916] | < 25 | x (activity was measured to be greater than 5.0 μM) | < 25 | x (activity was measured to be greater than 5.0 μM)
19 | COc1ccc(C(=O)N2CCC(N3CCC4(CC3)CN(C(=O)N(C)C)c3ccc(F)cc34)CC2)cc1 [compound 917] | < 25 | x (activity was measured to be greater than 5.0 μM) | < 25 | x (activity was measured to be greater than 5.0 μM)
20 | CCOC(=O)N1CCC(N2CCC3(CC2)CN(C(C)=O)c2c(C4CCCC4)cccc23)CC1 [compound 918] | 25 to 100 | x (activity was measured to be greater than 5.0 μM) | < 25 | x (activity was measured to be greater than 5.0 μM)
21 | CC(C)C1CCC(N2CCC3(CC2)CC(C(=O)O)c2ccccc23)CC1 (stereo not shown) [compound 919] | < 25 | x (activity was measured to be greater than 5.0 μM) | < 25 | x (activity was measured to be greater than 5.0 μM)
22 | CN(C)C(=O)N1CC2(CCN(C3CCCN(C(=O)OCC(F)F)CC3)CC2)c2cc(F)ccc21 (stereo not shown) [compound 920] | 25 to 100 | xxx (activity was measured to be less than 2.0 μM) | 25 to 100 | xxx (activity was measured to be less than 2.0 μM)
23 | CC(F)CC(=O)N1CCC(N2CCC3(CC2)CN(C(=O)N(C)C)c2ccc(F)cc23)CC1 (stereo not shown) [compound 921] | 25 to 100 | x (activity was measured to be greater than 5.0 μM) | < 25 | x (activity was measured to be greater than 5.0 μM)
24 | CC(=O)NC1CC2(CCN(C3CCCC3)CC2)c2ccccc21 (stereo not shown) [compound 922] | 25 to 100 | x (activity was measured to be greater than 5.0 μM) | 25 to 100 | x (activity was measured to be greater than 5.0 μM)
25 | COC(=O)N1CC[C@@H](CN2CCC3(CC2)CN(C(C)=O)c2ccccc23)C1 [compound 923] | 25 to 100 | xx (activity was measured to be between 2.0 μM and 5.0 μM) | 25 to 100 | xxx (activity was measured to be less than 2.0 μM)
26 | COCCN1CC2(CCN(C3CCCCC3)CC2)c2cc(F)ccc21 [compound 925] | 25 to 100 | xxx (activity was measured to be less than 2.0 μM) | 25 to 100 | xxx (activity was measured to be less than 2.0 μM)
27 | CCOC(=O)C1CC1CN1CCC2(CC1)C[C@H](NC(C)=O)c1ccccc12 (stereo partly shown) [compound 926] | 25 to 100 | x (activity was measured to be greater than 5.0 μM) | < 25 | x (activity was measured to be greater than 5.0 μM)
28 | CCOC(=O)N1C2CCC1CC(N1CCC3(C[C@H](NC(C)=O)c4cc(F)ccc43)C1)C2 (stereo partly shown) [compound 928] | 25 to 100 | xxx (activity was measured to be less than 2.0 μM) | 25 to 100 | xxx (activity was measured to be less than 2.0 μM)
